# Assay results: ChEMBL document CHEMBL3045476, “Prediction of antiproliferative activity of some flavone derivatives: QSAR study” (2009)
# Tested on: SK-HEP1
# Test: Antiproliferative activity against Homo sapiens (human) SKHEP1 cells
# Format: functional
# Settings: SK-HEP1, read-out: pGI50 (converted)
row,GI50,SMILES
1,6.9 µM,O=c1c(OC/C(=N/O)c2ccc(F)cc2)c(-c2ccccc2)oc2ccccc12
2,7.39 µM,CO/N=C(/COc1ccc2c(=O)c(-c3ccccc3)coc2c1)c1ccccc1
3,5.59 µM,COc1ccc(/C(COc2ccc3c(=O)cc(-c4ccccc4)oc3c2)=N\O)cc1
4,2.8 µM,C/C(COc1ccc2c(=O)cc(-c3ccccc3)oc2c1)=N\O
5,3.3 µM,CO/N=C(/COc1ccc2c(=O)cc(-c3ccccc3)oc2c1)c1ccc(F)cc1
6,8.2 µM,CO/N=C(/COc1ccc2oc(-c3ccccc3)cc(=O)c2c1)c1ccccc1
7,1.9 µM,C/C(COc1ccc2oc(-c3ccccc3)cc(=O)c2c1)=N\O
8,7.11 µM,CO/N=C(/COc1c(-c2ccccc2)oc2ccccc2c1=O)c1ccccc1
9,2.6 µM,C/C(COc1c(-c2ccccc2)oc2ccccc2c1=O)=N\O
10,11 µM,CO/N=C(/COc1c(-c2ccccc2)oc2ccccc2c1=O)c1ccc(OC)cc1
11,5.5 µM,COc1ccc(/C(COc2ccc3c(=O)c(-c4ccccc4)coc3c2)=N\O)cc1
12,2.7 µM,COc1ccc(/C(COc2c(-c3ccccc3)oc3ccccc3c2=O)=N\O)cc1
13,7.29 µM,C/C(COc1ccc2c(=O)c(-c3ccccc3)coc2c1)=N\O
14,2 µM,CO/N=C(\C)COc1ccc2c(=O)cc(-c3ccccc3)oc2c1
15,2 µM,CO/N=C(/COc1ccc2c(=O)cc(-c3ccccc3)oc2c1)c1ccccc1
16,5.29 µM,CO/N=C(/COc1ccc2c(=O)c(-c3ccccc3)coc2c1)c1ccc(OC)cc1
17,2 µM,CO/N=C(/COc1ccc2oc(-c3ccccc3)cc(=O)c2c1)c1ccc(OC)cc1
18,7.9 µM,CO/N=C(/COc1ccc2oc(-c3ccccc3)cc(=O)c2c1)c1ccc(F)cc1
19,2.3 µM,O=c1cc(-c2ccccc2)oc2cc(OC/C(=N/O)c3ccc(F)cc3)ccc12
20,2 µM,O=c1cc(-c2ccccc2)oc2cc(OC/C(=N/O)c3ccccc3)ccc12
21,6.39 µM,O=c1c(-c2ccccc2)coc2cc(OC/C(=N/O)c3ccccc3)ccc12
22,6.39 µM,CO/N=C(\C)COc1ccc2c(=O)c(-c3ccccc3)coc2c1
23,6.6 µM,O=c1c(-c2ccccc2)coc2cc(OC/C(=N/O)c3ccc(F)cc3)ccc12
24,7.21 µM,O=c1c(OC/C(=N/O)c2ccccc2)c(-c2ccccc2)oc2ccccc12
25,13 µM,CO/N=C(/COc1c(-c2ccccc2)oc2ccccc2c1=O)c1ccc(F)cc1
26,6.09 µM,CO/N=C(/COc1ccc2c(=O)c(-c3ccccc3)coc2c1)c1ccc(F)cc1
27,4.79 µM,CO/N=C(/COc1ccc2c(=O)cc(-c3ccccc3)oc2c1)c1ccc(OC)cc1
28,9.2 µM,CO/N=C(\C)COc1c(-c2ccccc2)oc2ccccc2c1=O
29,2.8 µM,O=c1cc(-c2ccccc2)oc2ccc(OC/C(=N/O)c3ccc(F)cc3)cc12
